Reference: patent publication US20220153732A1, “PROTEIN SECRETION INHIBITORS” (KEZAR LIFE SCIENCES, priority 2019, published 2022)
Read-outs that look alike come from different tables or passages of the source.

Legend:
Format in all cases: cell-based
[1] = tested on: IL-2-FL/Gaussia Luciferase; assay: Dox Induced IL2-FL-Gluc Assay; details: 293FRT/TO cells, read-out: 24 hr Dox Inducible IL2FLGIuc 293FRT/TO: Mean IC50
Outline: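 Compounds were added together with doxycycline in DMSO/media and incubated at 37° C., 5% CO2. The cells were a stably selected line carrying IL-2-FL/Gaussia luciferase under T-REx inducible control. Structures drawn without stereochemistry were tested as stereoisomer mixtures.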

[2] = tested on: human multiple myeloma cell line NCI-H929; assay: H929 Cell Viability Assay; details: 48 hr, NCI-H929 cells, Celltiter-Glo, read-out: 48 hr H929 Viability Celltiter-Glo: Mean EC50
Procedure: Plates were incubated at 37° C., 5% CO2 for 48 hours. After 48 hours, Celltiter-Glo® (Promega) was added to each well and luciferase signal was quantified using Tecan Infinite M1000 Pro for cell viability determination.
For chemical structures that include one or more stereoisomers, but are illustrated without indicating stereochemistry, the assay data refers to a mixture of stereoisomers.

[3] = tested on: human multiple myeloma cell line U266B1; assay: U266 Cell Viability Assay; details: U-266, 48 hr, U266B1 cells, Celltiter-Glo, read-out: 48 hr U266 Viability Celltiter-Glo: Mean EC50
Outline: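 Viability measured by CellTiter-Glo luciferase signal after 48 h compound exposure (37 °C, 5% CO2) of U266B1 cells in 384-well format. Where stereochemistry is not shown, data refer to the stereoisomer mixture.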

[4] = tested on: TNFα-FL/Gaussia Luciferase; assay: Dox Induced TNFα-FL-Gluc Assay; details: 293FRT/TO cells, read-out: 24 hr Dox Inducible TNFaFLGluc 293FRT/TO: Mean IC50
Outline: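 Compounds were added in doxycycline-containing DMSO/media to cells plated the previous day and incubated at 37° C under 5% CO2. These cells stably express a TNFα-FL/Gaussia luciferase cDNA whose expression is under T-REx (Dox-inducible) control, selected with Hygromycin and Blasticidin.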

[5] = tested on: PD1-ss+10aa/Gaussia Luciferase; assay: Dox-Induced PD1-ss-Gluc Assay; details: 293FRT/TO cells, read-out: 24 hr Dox Inducible PD1ssGluc 293FRT/TO: Mean IC50
Outline: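 Compounds, diluted in DMSO/media with doxycycline, were added to cells plated a day earlier and kept at 37° C under 5% CO2. The cells stably express a Gaussia luciferase construct fused to PD1-ss+10aa, induced via the T-REx system. Unassigned stereochemistry means mixture data.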

[6] = tested on: HER3-ss+4aa/Gaussia Luciferase; assay: Dox-Induced Her3-ss-Gluc Assay; details: 293FRT/TO cells, read-out: 24 hr Dox Inducible Her3(ss + 4)Gluc 293FRT/TO: Mean IC50
Outline: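 Compounds, diluted in DMSO/media containing doxycycline, were incubated at 37° C., 5% CO2 with cells seeded one day earlier. The cells stably express HER3-ss+4aa/Gaussia luciferase under T-REx control. Where no stereochemistry is shown, data refer to the mixture of stereoisomers.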

[7] = 24 hr doxycycline induction, Gaussia luciferase signal

| Compound | IC50 [1, 7] [µM] | EC50 [2] [µM] | EC50 [3] [µM] | IC50 [4, 7] [µM] | IC50 [5, 7] [µM] | IC50 [6, 7] [µM] | IC50 ([1]; 24 hr, doxycycline-induced) [µM] | IC50 ([4]; 24 hr, doxycycline-induced) [µM] | IC50 ([5]; 24 hr, doxycycline-induced) [µM] | IC50 ([6]; 24 hr, doxycycline-induced) [µM] |
| --- | --- | --- | --- | --- | --- | --- | --- | --- | --- | --- |
| Cc1ccc(C(=O)Nc2nc(C(C)(C)OC(C)C)cs2)n1Cc1ccncc1 [Compound A76, N-(4-(2-isopropoxypropan-2-yl)thiazol-2-yl)-5-methyl-1-(pyridin-4-ylmethyl)-1H-pyrrole-2-carboxamide] | 3.99 | > 25 | > 25 | > 25 | 2.73 | 12.5 |  |  |  |  |
| CC(C)OC(C)(C)c1csc(NC(=O)c2cccn2CCCc2ccncc2)n1 [Compound A11, N-(4-(2-isopropoxypropan-2-yl)thiazol-2-yl)-1-(3-(pyridin-4-yl)propyl)-1H-pyrrole-2-carboxamide] | 0.061 | 8.69 | > 25 | 2.39 | 0.115 | 0.128 |  |  |  |  |
| CC(C)OC(C)(C)c1csc(NC(=O)c2cccn2Cc2ccc(S(C)(=O)=O)cc2)n1 [Compound A84, N-(4-(2-isopropoxypropan-2-yl)thiazol-2-yl)-1-(4-(methylsulfonyl)benzyl)-1H-pyrrole-2-carboxamide] | 5.82 | > 25 | > 25 | > 25 | 6.34 | > 25 |  |  |  |  |
| CCS(=O)(=O)N1CCN(Cc2csc(NC(=O)c3cccn3Cc3ccncc3)n2)CC1 [Compound A96, N-(4-((4-(ethylsulfonyl)piperazin-1-yl)methyl)thiazol-2-yl)-1-(pyridin-4-ylmethyl)-1H-pyrrole-2-carboxamide] | > 25 | > 25 | > 25 | > 25 | 15.7 | > 25 |  |  |  |  |
| CC(C)(OCC1CCCCC1)c1csc(NC(=O)c2cccn2Cc2ccncc2)n1 [Compound A7, N-(4-(2-(cyclohexylmethoxy)propan-2-yl)thiazol-2-yl)-1-(pyridin-4-ylmethyl)-1H-pyrrole-2-carboxamide] | 0.071 | 3.85 | > 25 | 0.808 | 0.058 | 0.093 |  |  |  |  |
| O=C(Nc1nc(/C=C/c2cccnc2)cs1)c1cccn1Cc1ccncc1 [Compound A165, N-(4-(2-(pyridin-3-yl)vinyl)thiazol-2-yl)-1-(pyridin-4-ylmethyl)-1H-pyrrole-2-carboxamide] | 10.8 | 11.1 | > 25 | > 25 | 1.65 | 9.83 |  |  |  |  |
| CC(C)OC(C)(C)c1csc(NC(=O)c2cccn2Cc2ccncc2C(F)(F)F)n1 [Compound A214, N-(4-(2-isopropoxypropan-2-yl)thiazol-2-yl)-1-((3-(trifluoromethyl)pyridin-4-yl)methyl)-1H-pyrrole-2-carboxamide] | 6.45 | > 25 | > 25 | > 25 | 4.55 | 6.7 |  |  |  |  |
| CC(C)OC(C)(C)c1csc(NC(=O)c2ccc(CO)n2Cc2ccncc2)n1 [Compound A110, 5-(hydroxymethyl)-N-(4-(2-isopropoxypropan-2-yl)thiazol-2-yl)-1-(pyridin-4-ylmethyl)-1H-pyrrole-2-carboxamide] | > 25 | > 25 | > 25 | > 25 | > 25 | > 25 |  |  |  |  |
| CC(C)OC(C)(C)c1csc(NC(=O)c2cccn2Cc2ccccc2)n1 [Compound A79, 1-benzyl-N-(4-(2-isopropoxypropan-2-yl)thiazol-2-yl)-1H-pyrrole-2-carboxamide] | 4.15 | 24.9 | > 25 | > 25 | 3.18 | 5.26 |  |  |  |  |
| CCc1sc(NC(=O)c2cccn2Cc2ccncc2)nc1C [Compound A43] | 2.67 | > 25 | > 25 | > 25 | 0.942 | 2.21 |  |  |  |  |
| CC(=O)Nc1ccc(/C=C/c2csc(NC(=O)c3cccn3Cc3ccncc3)n2)cc1 [Compound A223, N-(4-(4-acetamidostyryl)thiazol-2-yl)-1-(pyridin-4-ylmethyl)-1H-pyrrole-2-carboxamide] | 8.04 | 22.3 | > 25 | > 25 | 0.513 | 3.12 |  |  |  |  |
| O=C(Nc1nc(/C=C/c2ccc(N3CCCCC3)cc2)cs1)c1cccn1Cc1ccncc1 [Compound A233] | 0.633 | 5.79 | > 25 | 2.22 | 0.056 | 0.304 |  |  |  |  |

Next, values leading:

| IC50 [1, 7] [µM] | EC50 [2] [µM] | EC50 [3] [µM] | IC50 [4, 7] [µM] | IC50 [5, 7] [µM] | IC50 [6, 7] [µM] | IC50 ([1]; 24 hr, doxycycline-induced) [µM] | IC50 ([4]; 24 hr, doxycycline-induced) [µM] | IC50 ([5]; 24 hr, doxycycline-induced) [µM] | IC50 ([6]; 24 hr, doxycycline-induced) [µM] | Compound |
| --- | --- | --- | --- | --- | --- | --- | --- | --- | --- | --- |
| 0.788 | > 25 | > 25 | 2.32 | 0.146 | 0.377 |  |  |  |  | C/C(=C\c1ccccc1)c1csc(NC(=O)c2cccn2Cc2ccncc2)n1 [Compound A247, N-(4-(1-phenylprop-1-en-2-yl)thiazol-2-yl)-1-(pyridin-4-ylmethyl)-1H-pyrrole-2-carboxamide] |
|  | 2.77 | > 25 |  |  |  | 0.064 | 0.242 | 0.043 | 0.054 | O=C(Nc1nc([C@H]2CCC[C@H]2c2ccccc2)cs1)c1cccn1Cc1ccncc1 [Compound A301, N-(4-((1S,2R)-2-phenylcyclopentyl)thiazol-2-yl)-1-(pyridin-4-ylmethyl)-1H-pyrrole-2-carboxamide] |
|  | > 25 | > 25 |  |  |  | > 25 | > 25 | 22.7 | 5.57 | CC(C)(C)c1csc(NC(=O)c2cccn2Cc2ccccc2Cl)n1 [Compound B11, N-(4-(tert-butyl)thiazol-2-yl)-1-(2-chlorobenzyl)-1H-pyrrole-2-carboxamide] |
|  | > 25 | > 25 |  |  |  | > 25 | > 25 | 11.9 | > 25 | CCc1cc(NC(=O)c2cccn2Cc2ccncc2)ccc1C [Compound B10, N-(3-ethyl-4-methylphenyl)-1-(pyridin-4-ylmethyl)-1H-pyrrole-2-carboxamide] |
| 0.769 | 18.7 | > 25 | 4.06 | 0.325 | 0.819 |  |  |  |  | O=C(Nc1nc([C@@H]2CCCN2Cc2ccccc2)cs1)c1cccn1Cc1ccncc1 [Compound A277] |
|  | > 25 | 23.8 |  |  |  | > 25 | 14.4 | 0.035 | 5.41 | Cc1cccc(/C=C/c2csc(NC(=O)c3cccn3Cc3ccncc3)n2)n1 [Compound A356] |
|  | > 25 | > 25 |  |  |  | > 25 | > 25 | > 25 | > 25 | CC(C)c1csc(NC(=O)[C@H]2CCCN2C(=O)c2ccncc2)n1 [Compound B21, (R)-1-isonicotinoyl-N-(4-isopropylthiazol-2-yl)pyrrolidine-2-carboxamide] |
|  | > 25 | > 25 |  |  |  | 2.93 | > 25 | 2.84 | 4.24 | Cc1ccc(S(=O)(=O)CCOC(C)(C)c2csc(NC(=O)c3cccn3Cc3ccncc3)n2)cc1 [Compound B3, 1-(pyridin-4-ylmethyl)-N-(4-(2-(2-tosylethoxy)propan-2-yl)thiazol-2-yl)-1H-pyrrole-2-carboxamide] |
|  | 2.54 | > 25 |  |  |  | 0.057 | 0.427 | 0.025 | 0.064 | O=C(Nc1nc([C@H]2CCCN2c2ccccn2)cs1)c1cccn1Cc1ccncc1 [Compound A317] |
|  | > 25 | > 25 |  |  |  | > 25 | > 25 | > 25 | > 25 | CC(C)(C)[C@H]1C[C@@H]1NC(=O)c1cccn1Cc1ccncc1 [Compound B23, N-((1S,2R)-2-(tert-butyl)cyclopropyl)-1-(pyridin-4-ylmethyl)-1H-pyrrole-2-carboxamide] |
